Test results reported in patent publication US7928098B2, “Therapeutic and/or preventive agents for a sleep disorder” (Kyowa Hakko Kirin Co., Ltd., priority 2005, dated 2011).

Tests used:
ddY male mice = assay: Effect on pentobarbital sodium-induced sleeping time (loss of righting reflex); assay type: in vivo; conditions: test compound 10 mg/kg p.o. one hour before pentobarbital-Na 25 mg/kg s.c.
Description: The test was conducted to examine influence of Compound (I) of the present invention on pentobarbital sodium-induced sleeping time, according to the method of Iyakuhin no Kaihatsu, Vol. 9, Iyakuhin no Tansaku I, “antihypnotic”, p. 220-226, Hirokawa Shoten.
For the test, ddY male mice (19-21 g body weight; Japan SLC, Inc.) were used. All test compounds were used by suspending in distilled water (Otsuka Pharmaceutical Factory, Inc.) containing 0.5 volume/weight % methylcellulose (0.5% MC: Wako Pure Chemical Industries, Ltd.). A volume of 0.1 mL was administered per 10 g body weight of mice.
Groups of seven mice were used. To the control groups were orally administrated 0.5% MC, whereas a suspension of the test compound was orally administered to the test compound administered groups. One hour after the administration, pentobarbital sodium (pentobarbital-Na: Tokyo Chemical Industry Co., Ltd., 25 mg/kg) was administered subcutaneously. Mouse placed in a recumbent position, the mouse immediately returns to a proper upright position (this is known as righting reflex). However, the administration of pentobarbital sodium eliminated the righting reflex in the control groups. The time period in which the administration of […] eliminated the righting reflex was regarded as a sleeping time. By a measurement of time disappearing righting reflex immediately after the administration, the sleeping time was determined.

[1] = Table 5-2, groups of seven, controls 40.00 ± 5.32 (r5) and 45.87 ± 4.17 (r12)
[2] = Table 5-1, groups of seven, controls 52.12 ± 5.20 (r5) and 35.56 ± 5.21 (r11)

Row | SMILES | Sleeping time (min) Mean value ± standard deviation (ddY male mice; [1]) | melting point | Sleeping time (min) Mean value ± standard deviation (ddY male mice; [2])
1 | O=C(Nc1nc(-c2ccco2)c(C(=O)c2ccc(F)cc2)s1)c1ccncc1 [Compound 78, N-[5-(4-Fluorobenzoyl)-4-(2-furyl)thiazol-2-yl]pyridine-4-carboxamide] | 8.66 ± 4.67 min | – | –
2 | O=C(Nc1nc(-c2ccco2)c(C(=O)c2ccccn2)s1)c1ccncc1 [Compound 95, N-[4-(2-Furyl)-5-(pyridin-2-ylcarbonyl)thiazol-2-yl]pyridine-4-carboxamide] | – | 218 to 227 °C | 0.45 ± 0.45 min
3 | O=C(c1ccccn1)c1sc(NC(=O)C2CC2)nc1-c1ccco1 [Compound 99, N-[4-(2-Furyl)-5-(pyridin-2-ylcarbonyl)thiazol-2-yl]cyclopropanecarboxamide] | 0.05 ± 0.02 min | 191 to 192 °C | –
4 | N#Cc1ccc(C(=O)Nc2nc(-c3ccco3)c(C(=O)c3ccccn3)s2)cc1 [Compound 114, 4-Cyano-N-[4-(2-furyl)-5-(pyridin-2-ylcarbonyl)thiazol-2-yl]benzamide] | 0.63 ± 0.53 min | 232 to 235 °C | –
5 | Cc1ncc(C(=O)Nc2nc(-c3ccco3)c(C(=O)c3ccccn3)s2)cn1 [Compound 136, N-[4-(2-Furyl)-5-(pyridin-2-ylcarbonyl)thiazol-2-yl]-2-methylpyrimidine-5-carboxamide] | – | 255 to 265 °C (dec.) | 1.89 ± 1.81 min
6 | O=C(Nc1nc(-c2ccco2)c(C(=O)c2ccccn2)s1)c1ccco1 [Compound 142, N-[4-(2-Furyl)-5-(pyridin-2-ylcarbonyl)thiazol-2-yl]furan-2-carboxamide] | 4.52 ± 4.41 min | 184 to 185 °C | –
7 | COC(=O)Nc1nc(-c2ccco2)c(C(=O)c2ccccn2)s1 [Compound 157, Methyl N-[4-(2-furyl)-5-(pyridin-2-ylcarbonyl)thiazol-2-yl]carbamate] | 9.39 ± 5.68 min | – | –
8 | O=C(Nc1nc(-c2ccco2)c(C(=O)C2CCCC2)s1)c1ccncc1 [Compound 336, N-[5-(Cyclopentylcarbonyl)-4-(2-furyl)thiazol-2-yl]pyridine-4-carboxamide] | 1.60 ± 1.56 min | 168 to 181 °C | –
9 | O=C(Nc1nc(-c2ccco2)c(C(=O)C2CCOCC2)s1)c1ccncc1 [Compound 360, N-[4-(2-Furyl)-5-(tetrahydropyran-4-ylcarbonyl)thiazol-2-yl]pyridine-4-carboxamide] | 0.03 ± 0.02 min | 202 to 209 °C | –
10 | O=C(Nc1nc(-c2ccco2)c(C(=O)C2CCOCC2)s1)C1CC1 [Compound 361, N-[4-(2-Furyl)-5-(tetrahydropyran-4-ylcarbonyl)thiazol-2-yl]cyclopropanecarboxamide] | – | 182 to 183 °C | 1.65 ± 1.40 min
11 | Cc1ccc(C(=O)Nc2nc(-c3ccco3)c(C(=O)C3CCOCC3)s2)cc1 [Compound 365, N-[4-(2-Furyl)-5-(tetrahydropyran-4-ylcarbonyl)thiazol-2-yl]-4-methylbenzamide] | 0.05 ± 0.05 min | 190 to 192 °C | –
12 | Cc1ccc(C(=O)Nc2nc(-c3ccco3)c(C(=O)C3CCOCC3)s2)cn1 [Compound 409, N-[4-(2-Furyl)-5-(tetrahydropyran-4-ylcarbonyl)thiazol-2-yl]-2-methylpyridine-5-carboxamide] | 0.05 ± 0.05 min | – | –
13 | O=C(CN1CCOCC1)Nc1nc(-c2ccco2)c(C(=O)C2CCOCC2)s1 [Compound 463, N-[4-(2-Furyl)-5-(tetrahydropyran-4-ylcarbonyl)thiazol-2-yl]-2-morpholinoacetamide] | 0.00 ± 0.00 min | – | –
14 | O=C(Nc1nc(-c2ccco2)c(C(=O)c2ccccc2)s1)c1ccncc1 [Compound 508, N-[5-Benzoyl-4-(2-furyl)thiazol-2-yl]pyridine-4-carboxamide] | 14.26 ± 4.35 min | – | –
